In brackets after ≈: the same amount, converted by molar mass.
What was measured:
Format in all cases: physicochemical
physchem [1] = assay: physchem
log P of Compound 1 = assay: log P of Compound 1
physchem [2] = assay: physchem; remark: listed apart in the source
[3] = Solubility screens for formulation strategies (lipidic, mesoporous silica, spray drying)
Excerpt: The inventors investigated multiple strategies to make an effective solid formulation, including: • Conventional immediate release tablets. […] Screen of co-crystal former molecules was unsuccessful in identifying a suitable co-crystal form. • Lipid formulation: Compound 1 is a neutral molecule, and not lipophilic.

pKa (physchem [1]): 1.78 | logP (log P of Compound 1): 2.8 | solubility (physchem [2]; fassif): 5.8 µg/mL (≈ 18.4 µM) | solubility (physchem [2]; pH 1.2, simulated gastric fluid): 29.8 µg/mL (≈ 94.4 µM) | solubility (physchem [2]; pH 7, aqueous buffer): < 5 µg/mL | solubility in solvents suitable for spray drying [3]: limited solubility | solubility in suitable solvent for mesoporous silica formulation [3]: inadequate | solubility in suitable excipients for a lipidic formulation ([3]; lipidic screen): did not show significant solubility
SMILES: Cc1cc(-c2nnc(N)nc2-c2ccc(F)cc2)cc(Cl)n1 [Compound 1, 6-(2-chloro-6-methylpyridin-4-yl)-5-(4-fluorophenyl)-1,2,4-triazin-3-amine]

— US12502355B2, “Solid pharmaceutical formulations of 6-(2-chloro-6-methylpyridin-4-yl)-5-(4-fluorophenyl)-1,2,4-triazin-3-amine” (AstraZeneca AB, priority 2019, dated 2025)
